Laboratory results published in US20050282747A1, “Methods and compositions for wound healing” (The Research Foundation of State University of New York at …, priority 2003, published 2005).

Legend:
[1] = test system: NIH 3T3 fibroblasts; experiment: Cell proliferation inside the RGD-peptide coupled HA-DTPH/PEGDA hydrogel (MTT assay, F-DA/PI staining); format: cell-based; conditions: NIH 3T3 encapsulated at 1×10^6/ml; day 15 compared to day 1
Method: Cell proliferation inside the RGD-peptide coupled HA-DTPH/PEGDA hydrogel. NIH 3T3 fibroblasts were suspended in 1.25% (w/v) HA-DTPH solution in complete medium (pH 7.4) at a density of 1×10^6/ml, and then 1 ml of stock peptide-coupled PEGDA or blank PEGDA solution (see hydrogel preparation) was added into 4 ml of cell/HA-DTPH mixture solution. After mixed, 200 μl of the mixture of HA-DTPH/PEG-diacrylate/T31 fibroblasts was injected into each well of 24-well plates. After 1 h, 1.0 ml of complete medium was added into each well and incubated in 37° C. 5% CO2 incubator. The medium was changed every day without damaging the hydrogel. The viability of NIH 3T3 fibroblast inside hydrogel following 1, 5 and 15 d in vitro culture was determined by a double-staining procedure (Saha, et al., Dev. Comp. Immunol. 27:351, 2003) using fluorescein diacetate (F-DA) and propidium iodide (PI). Briefly, cell-hydrogel constructs were rinsed twice with DPBS buffer, stained with F-DA (0.02 mg/ml)(Molecular Probes, Eugene, Oreg.) and PI (0.2 μg/ml)(Sigma) at room temperature for 3 min, rinsed twice with DPBS buffer, stored on ice, and observed under confocal microscope (Zeiss Axioplan 2 Imaging System, LSM 5 Pa).
The cell proliferation inside hydrogel following in vitro culture of day 1, 5, 10 and 15 was determined by MTT (3-[4,5-dimethylthiazol-2-yl]-2,5-diphenyltetrazolium bromide) assay (Sigma). A 1% MTT in serum-free media solution was added to each well containing the cell-hydrogel construct. Active mitochondria metabolize the tetrazolium salt to form an insoluble formazin dye. After 8 h of incubation, the constructs were placed in 10 ml glass vials and 2 ml 0.04 N HCl in isopropanol was added to extract the formazin. The absorbance was recorded at 550 nm with an OPTI Max microplate reader (Molecular Devices) and was converted into a cell number based on standard curves.

[2] = test system: CF-31 fibroblasts; experiment: Cell spreading on RGD-peptide coupled HA-DTPH/PEGDA hydrogel surface, CF-31; format: cell-based, human; conditions: for percentage of spreading cells / percentage of round cells: complete medium, 18 h post seeding
Method: (§1) Cell culture. Dermal fibroblasts from a person (CF-31) (Clonetics, San Diego) and NIH 3T3 fibroblast (ATCC) were routinely cultured in completed DMEM/F-12 medium supplied with 10% new-born calf serum (for NIH 3T3 fibroblast) or fetal bovine serum (for CF-31 fibroblast), 2 mM L-glutamine and 100 units/ml antibotic-antimycotic (GIBCO BRL, Life Technologies, Grand Island, N.Y.), and 50 μg/ml ascorbic acid (Sigma) at 37° C. in a humidified 5% CO2 incubator. Monolayers of fibroblasts in their growth phase (ca. 90% confluence) were dissociated with trypsin/1 mM EDTA in DPBS, centrifuged and resuspended in the serum free medium or complete medium.
Cell spreading on the RGD-peptides coupled HA-DTPH/PEGDA hydrogel surface. HA-DTPH/PEGDA hydrogels or hydrogel films in 24-well plate were rinsed with serum free medium or complete medium 3 times, and then CF-31 and NIH 3T3 fibroblasts were seeded on the surface of the hydrogel or hydrogel film surface at a density of 4×10^4/well. Then, 1 ml of serum free medium or complete medium was added into each well, and the cells were cultured at 37° C. in a humidified 5% CO2 incubator. At 2, 4, 8 and 18 h post seeding, 0.4 ml of 10% formalin solution (Sigma) was added into each well to fix cell for 15 min. The cells were then stained at room temperature with 0.1% crystal violet in 200 mM boric acid (pH 8.0) for 15 minutes. Photomicrographs of the cytoplasmic-stained cells were taken a 100×total magnification using an inverted Nikon microscope with a CCD camera on a minimum of five random fields per well (n=3 per composition). The bundled Spot 3.0 software (Diagnostic Instruments, Sterling Heights, MI) was used to classify the cell morphology into 3 categories viz. round, partially spread or fully spread as reported by Neff etc[47]. It was defined that cells with surface area <2000 pixels^2 were completely round, 2000 pixels^2 <cells with area <8000 pixels^2 had few cytoplasmic extensions although they maintained a somewhat round appearance, and cells with surface areas >8000 pixels^2 were fully spreading and had multiple cytoplasmic extensions in various directions.

[3] = test system: NIH 3T3 fibroblasts; experiment: Cell proliferation on the RGD-peptide coupled HA-DTPH/PEGDA hydrogel surface (MTS assay); format: cell-based; conditions: PEGDA 3400; for proliferation of NIH 3T3 fibroblasts on surface: in 24 h, peptide concentration in bulk 0.268 mM
Method: Cell proliferation on the RGD-peptide coupled HA-DTPH/PEGDA hydrogel surface. Peptide-coupled HA-DTPH/PEGDA hydrogels or hydrogel films in 24-well plates were rinsed 3 times with complete medium, and then CF-31 and NIH 3T3 fibroblasts were seeded on the surface of the hydrogel or hydrogel film surface at a density of 1×10^4/well. After that 1 ml of complete medium was added into each well, and the cells were cultured at 37° C. in a humidified 5% CO2 incubator and the medium was changed daily. At different time points (day 1, 2, 3 and 4), the cell number was determined by MTS assay (Cell-Titer 96 Proliferation Kit, Promega, Madison, Wis.) as previously described Shu, et al., Biomacromolecules 3:1304, 2002; Ren and Tang, Anticancer Res. 19:403, 1999) and the absorption recorded at 550 nm with an OPTI Max microplate reader (Molecular Devices). Cell numbers were obtained using standard curves generated from the assay.

[4] = test system: NIH 3T3 fibroblasts; experiment: Cell spreading on RGD-peptide coupled HA-DTPH/PEGDA hydrogel surface, NIH 3T3; format: cell-based
Method: as §1
Cell spreading on the RGD-peptides coupled HA-DTPH/PEGDA hydrogel surface. HA-DTPH/PEGDA hydrogels or hydrogel films in 24-well plate were rinsed with serum free medium or complete medium 3 times, and then CF-31 and NIH 3T3 fibroblasts were seeded on the surface of the hydrogel or hydrogel film surface at a density of 4×10^4/well. Then, 1 ml of serum free medium or complete medium was added into each well, and the cells were cultured at 37° C. in a humidified 5% CO2 incubator. At 2, 4, 8 and 18 h post seeding, 0.4 ml of 10% formalin solution (Sigma) was added into each well to fix cell for 15 min. The cells were then stained at room temperature with 0.1% crystal violet in 200 mM boric acid (pH 8.0) for 15 minutes. […]

[5] = test system: NIH 3T3 fibroblasts; experiment: Injectable fibrous tissue regeneration in nude mouse, histology and procollagen immunohistochemistry; format: in vivo, nude mice
Method: RGD-peptide coupled HA-DTPH/PEGDA hydrogel for injectable fibrous tissue regeneration in nude mouse. Animal experiments were carried out according to NIH guidelines for the care and use of laboratory animals (NIH publication #85-23 rev. 1985). Male nude mice (n=12) (Simonsen Laboratories Inc., Gilroy, Calif.), 4-6 weeks old were anesthetized with 2.5% isoflurane using a VetEquip inhalation anesthesia system (Pleasanton, Calif.). NIH 3T3 fibroblasts were suspended in 1.25% (w/v) HA-DTPH solution in complete medium (pH 7.4) at a density of 50×10^6 cell/ml, and then 1 ml stock CRGDS-coupled PEGDA (peptide concentration 10/100) or blank PEGDA (see 2.4 hydrogel preparation) was added into 4 ml cell/HA-DTPH mixture solution and mixed. Each nude mouse received four 300 μl s.c. dorsal injections by means of an 18-gauge needle under the dorsal panniculus camosus (two 300 μl solution with cells and two 300 μl solution without cells as control). At each time point (4 and 8 weeks after implantation), two nude mice were sacrificed, and the implants with the surrounding tissues were removed from the mouse, fixed in 10% buffered formalin solution (Sigma) for 24 h, embedded in paraffin, cut into 5-μm sections, and mounted onto slides.
Histological and immunohistochemical staining. […]

[6] = peptide concentration in bulk 0.0054 mM
[7] = peptide concentration in bulk 0.0268 mM
[8] = peptide concentration in bulk 0.134 mM
[9] = peptide concentration in bulk 0.268 mM
[10] = PEG spacer molecular weight 3400, peptide concentration in bulk 0.268 mM

| Substance | cell proliferation inside the hydrogel [1] | percentage of spreading cells [2, 6] | percentage of spreading cells [2, 7] | percentage of spreading cells [2, 8] | percentage of spreading cells [2, 9] | proliferation of NIH 3T3 fibroblasts on surface [3] | cell morphology on hydrogel surface ([4]; 4 and 8 h post-seeding) | cell attachment and spreading ([2]; CF-31, serum free medium) | cell area ([4]; at 4 and 8 h) | round cell percent ([2]; PEG spacer molecular weight 700, peptide concentration in bulk 0.268 mM) | round cell percent [2, 10] | spreading percent of CF-31 fibroblast [2, 10] | percentage of round cells [2, 6] | percentage of round cells [2, 9] | cell density relative to cell culture polystyrene control ([3]; hydrogel film surface, 4 days culture, CRGDS concentration in bulk 0.268 mM) | fibrous tissue and procollagen versus hydrogel lacking the peptide ([5]; cell-seeded hydrogel, 4 weeks post-injection) | signs of biological incompatibility (necrosis or damage to the surrounding tissues) ([5]; s.c. injection in nude mice, gel formed in vivo) |
| --- | --- | --- | --- | --- | --- | --- | --- | --- | --- | --- | --- | --- | --- | --- | --- | --- | --- |
| CCRGDS | 253% | 8.3% | 12.4% | 36.8% | 46.5% | 1.50 fold | – | – | – | – | – | – | – | – | – | – | – |
| CRDGS [reference compound] | 245% | – | – | – | – | no spreading or proliferation was observed | the cells were rounded | failed to promote cell spreading | – | – | – | – | – | – | – | – | – |
| CRGDS | 253% | 19.1% | 31.3% | 48.2% | 53.0% | 1.64 fold | – | – | larger than that for CCRGDS | 75.6% | 9.4% | 53% | 51.2% | 18% | ca. 80% | More uniform fibrous tissue and procollagen | No signs of biological incompatibility |
